pIC50, pKi: −log10 of the molar value. Structures can show the parent of a compound that is named as a salt.
Key:
DP receptor [1] = target: T1, DP receptor (Homo sapiens, UniProt Q13258); test: cAMP assay with washed platelets (DP inhibitory activity in vitro); type: cell-based; settings: 100 nM PGD2, cAMP by HTRF, read-out: IC50 (50% DP-inhibitory concentration in the cAMP assay)
T1 construct: endogenous in cells; host or cells: washed platelets from peripheral blood of a healthy volunteer (whole platelets in A1, platelet membrane fraction in A2)
T1 sequence (Q13258 1-359): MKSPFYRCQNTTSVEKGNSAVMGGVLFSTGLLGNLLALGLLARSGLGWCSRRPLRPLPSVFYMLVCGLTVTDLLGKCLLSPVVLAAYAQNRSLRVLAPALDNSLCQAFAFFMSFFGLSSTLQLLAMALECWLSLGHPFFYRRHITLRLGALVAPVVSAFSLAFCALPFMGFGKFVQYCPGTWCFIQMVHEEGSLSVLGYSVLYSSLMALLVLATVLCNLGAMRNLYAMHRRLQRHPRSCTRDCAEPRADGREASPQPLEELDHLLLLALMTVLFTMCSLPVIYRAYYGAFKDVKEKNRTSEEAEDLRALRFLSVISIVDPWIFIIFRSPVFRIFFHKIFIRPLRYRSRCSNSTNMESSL
Method: 1) Preparation of Platelet and a Method of cAMP Assay
30 ml of peripheral blood was collected from a healthy volunteer using a syringe containing one ninth amount of 3.8% sodium citrate for diagnosis. After being centrifuged at 180 g for 10 minutes at room temperature, a supernatant was collected and used as Platelet Rich Plasma (PRP). The resulting PRP was washed with wash buffer and centrifuged three times (Washed Platelet: WP) and platelets were counted by a microcell counter. WP was added to a plate in amount of 1.5×10^8/assay and the plate was treated, with 3-isobutyl-1-methylxanthin (IBMX; 0.5 mM) for 5 minutes. A reaction was initiated by adding 100 nM of PGD2 5 min after an addition of a test compound. The reaction was terminated with an addition of 1N HCl after 2 minutes and the cells were destructed using 12% triton X-100. An amount of cAMP in the supernatant was assayed by Homogeneous […] (HTRF)

DP receptor [2] = target: T1, DP receptor; test: Receptor binding assay, [3H]-PGD2, platelet membrane; settings: [3H]-PGD2, human platelet membrane, on ice 2 hours
Method: 2) Receptor Binding Assay A prepared WP was homogenated and a membrane fraction was collected with high-speed centrifugation. A compound of the present invention or a reference compound A(No. IC-73 in WO 2003/097598) was added to the plate and [^3H]-PGD2 was also added. A platelet membrane, a protein concentration is 2 mg/mL, was added and mixed in the plate, and placed on ice for 2 hours. The reaction solution was transferred to a low protein-adsorptive filter and washed with a wash solution eight times using a cell harvester. After the final washing, water was removed sufficiently, and micoscinti was added. DP inhibitory activity was investigated by measuring [^3H] by using Micro Beta.

Brown Norway (BN) Rats = test: Test using OVA asthma model of rat; type: in vivo; settings: 10 mg/kg p.o. once a day for three days, vs control group; for inhibition rate (%) increased hyperresponsive airway: AUC of acetylcholine response curve; for inhibition rate (%) mucus-secretion: mucin in airway lavage fluid; for inhibition rate (%) infiltration of inflammatory cells: total cell number in bronchoalveolar washings
Method: Brown Norway (BN) Rats were sensitized by i.p. administration of 0.1 mg/mL of ovalbumin (OVA) and 1 mg of aluminum hydroxide gel. A solution of 1% OVA was aerosolized by ultrasonic nebulizer (NE-U17) and the rats were subjected to inhalation exposure of the aerosol for 30 minutes in an exposing chamber 12, 19, 26 and 33 days after the sensitization. One hour before the 4th exposure of the antigen, compounds of the present invention were administered in a dose of 10 mg/kg p.o. once a day for three days consecutively. In a control group, 0.5% of methyl cellulose was administered in place of the compound of the present invention.
Under pentobarbital anesthesia (80 mg/kg, i.p.), acetylcholine (3.9, 7.8, 15.6, 31.3, 62.5, 125, 250 and 500 μg/kg) was injected to jugular vein of the rats successively from a lower dose at intervals of 5 minutes three days after the fourth exposure to the antigen, and immediate contractile reaction of airways (an increase of insufflation pressure) was measured by a modified method of Konnzett & Rössler. Inhibition rate of increased hyperresponsive airway against the control group was calculated based on area under curve (AUC) obtained from concentration-response curve of acetylcholine.
After the measurement of increased hyperresponsive airway was; completed, bronchoalveoli of the rats were washed with 5 mL of saline three times. Total cell number in the washings was counted by a hemacytometer under light microscope, and inhibition rates of infiltration of inflammatory cells against the control group were calculated. Further, muchin in the airway lavage fluid was measured by ELIZA method using jacalin, a muchin-binding lectin, and the inhibition rates of mucus-secretion against the control group were calculated.

Row | pIC50 (DP receptor [1]) | pKi (DP receptor [2]) | SMILES | further results
1 | 8.89 |  | CC(C)Oc1ccc(S(=O)(=O)N2CCC(c3cn(CC(=O)O)c4cc(Br)ccc34)C2)cc1F (stereo not drawn) [Compound I-86] | 
2 | 8.96 |  | CC(C)Sc1ccc(S(=O)(=O)N2CCC(c3cn(CC(=O)O)c4ccc(Cl)cc34)C2)cc1 (stereo not drawn) [Compound I-59] | 
3 | 8.72 | 8.66 | CC(C)Oc1ccc(S(=O)(=O)N2CCC(c3cn(CC(=O)O)c4ccc(F)cc34)CC2)cc1 [Compound I-23] | 
4 | 9.64 | 9.68 | CC(C)Oc1ccc(S(=O)(=O)N2CC[C@@H](c3cn(CC(=O)O)c4cc(-c5nccs5)ccc34)C2)cc1 [Compound I-96] | 
5 | 9.85 | 7.70 | CC(C)Oc1ccc(S(=O)(=O)N2CC[C@@H](c3cn(CC(=O)O)c4cc(-c5ncco5)ccc34)C2)cc1 [Compound I-103] | inhibition rate (%) increased hyperresponsive airway (Brown Norway (BN) Rats): 71%; inhibition rate (%) mucus-secretion (Brown Norway (BN) Rats): 52%; inhibition rate (%) infiltration of inflammatory cells (Brown Norway (BN) Rats): 58%
6 | 8.85 |  | CC(C)Oc1ccc(S(=O)(=O)N2CCC(c3cn(CC(=O)O)c4cc(-c5ccc6c(c5)OCO6)ccc34)C2)cc1 (stereo not drawn) [Compound I-80] | 
7 | 9.00 | 8.60 | CC(C)Oc1ccc(S(=O)(=O)N2CCC(c3cn(CC(=O)O)c4ccc(Cl)cc34)C2)cc1 (stereo not drawn) [Compound I-10] | 
8 | 8.66 |  | CC(C)Oc1ccc(S(=O)(=O)N2CCC(c3cn(CC(=O)O)c4cc(-c5ccc(C#N)cc5)ccc34)C2)cc1 (stereo not drawn) [Compound I-72] | 
9 |  |  | CC(C)Oc1ccc(S(=O)(=O)N2CC[C@@H](c3cn(CC(=O)O)c4ccc(Cl)cc34)C2)cc1 (as salt: TFA) [Compound I-65] | melting point: 167 °C
10 | 8.72 |  | CC(C)Oc1ccc(S(=O)(=O)N2CCC(c3cn(CC(=O)O)c4cc(-c5nccs5)ccc34)CC2)cc1 [Compound I-100] | 
11 | 8.82 | 7.72 | CC(C)Oc1ccc(S(=O)(=O)N2CCC(c3cn(CC(=O)O)c4c(Cl)cc(Cl)cc34)C2)cc1 (stereo not drawn) [Compound I-45] | 
12 | 8.92 |  | CC(C)Oc1ccc(S(=O)(=O)N2CCC(c3cn(CC(=O)O)c4cc(-c5ccoc5)ccc34)C2)cc1 (stereo not drawn) [Compound I-78] | 
13 | 8.70 | 8.33 | CCOc1ccc(S(=O)(=O)N2CCC(c3cn(CC(=O)O)c4ccc(Cl)cc34)C2)cc1 (stereo not drawn) [Compound I-38] | 
14 | 8.72 |  | CC(C)Oc1ccc(S(=O)(=O)N2CCC(c3cn(CC(=O)O)c4cc(-c5cccs5)ccc34)C2)cc1 (stereo not drawn) [Compound I-66] | 
15 | 8.89 | 8.38 | CC(C)Oc1ccc(S(=O)(=O)N2CCC(c3cn(CC(=O)O)c4c(Cl)cccc34)C2)cc1 (stereo not drawn) [Compound I-19] | 
16 | 8.85 |  | CC(C)Oc1ccc(S(=O)(=O)N2CCC(c3cn(CC(=O)O)c4cc(-c5ccsc5)ccc34)C2)cc1 (stereo not drawn) [Compound I-67] | 
17 |  |  | CC(C)Oc1ccc(S(=O)(=O)N2CC[C@H](c3cn(CC(=O)O)c4ccc(Cl)cc34)C2)cc1 (as salt: TFA) [Compound I-62] | melting point: 188 to 189 °C
18 | 9.57 | 9.68 | CC(C)Oc1ccc(S(=O)(=O)N2CC[C@@H](c3cn(CC(=O)O)c4cc(-c5ccco5)ccc34)C2)cc1 [Compound I-101] | 
19 | 9.01 |  | CC(C)Oc1ccc(S(=O)(=O)N2CCC(c3cn(CC(=O)O)c4cc(C#N)ccc34)CC2)cc1 [Compound I-98] | 

Row | pIC50 (DP receptor [1]) | pKi (DP receptor [2]) | SMILES | further results
20 | 8.92 | 8.60 | CC(C)Oc1ccc(S(=O)(=O)N2CCC(c3cn(CC(=O)O)c4cc(-c5nnco5)ccc34)C2)cc1 (stereo not drawn) [Compound I-88] | 
21 | 8.92 | 8.89 | CC(C)Oc1ccc(S(=O)(=O)N2CCC(c3cn(CC(=O)O)c4cc(-c5ncco5)ccc34)CC2)cc1 [Compound I-104] | 
22 | 9.25 |  | CC(C)Oc1ccc(S(=O)(=O)N2CCC(c3cn(CC(=O)O)c4cc(-c5nncs5)ccc34)CC2)cc1 [Compound I-102] | 
23 |  |  | CC(C)Oc1ccc(S(=O)(=O)N2CCC(c3cn(CC(=O)O)c4cc(N5CCOCC5)ccc34)C2)cc1.Cl (stereo not drawn) [Compound I-82] | inhibition rate (%) increased hyperresponsive airway (Brown Norway (BN) Rats): 59%; inhibition rate (%) mucus-secretion (Brown Norway (BN) Rats): 47%; inhibition rate (%) infiltration of inflammatory cells (Brown Norway (BN) Rats): 35%
24 | 8.64 |  | CC(C)Oc1ccc(S(=O)(=O)N2CCC(c3cn(CC(=O)O)c4cc(N5CCCC5=O)ccc34)C2)cc1 (stereo not drawn) [Compound I-107] | 
25 | 8.64 | 8.35 | CC(C)Oc1ccc(S(=O)(=O)N2CCC(c3cn(CC(=O)O)c4ccc(F)cc34)C2)cc1 (stereo not drawn) [Compound I-9] | 
26 | 9.01 | 8.68 | CC(C)Oc1ccc(S(=O)(=O)N2CCC(c3cn(CC(=O)O)c4cc(Cl)ccc34)C2)cc1 (stereo not drawn) [Compound I-14] | inhibition rate (%) increased hyperresponsive airway (Brown Norway (BN) Rats): 31%; inhibition rate (%) mucus-secretion (Brown Norway (BN) Rats): 55%; inhibition rate (%) infiltration of inflammatory cells (Brown Norway (BN) Rats): 57%
27 | 9.14 | 8.46 | CC(C)Oc1ccc(S(=O)(=O)N2CCC(c3cn(CC(=O)O)c4cc(Br)ccc34)C2)cc1 (stereo not drawn) [Compound I-60] | 
28 | 8.77 | 9.18 | CC(C)Oc1ccc(S(=O)(=O)N2CCC(c3cn(CC(=O)O)c4cc(-c5ccncc5)ccc34)C2)cc1.Cl (stereo not drawn) [Compound I-75] | inhibition rate (%) increased hyperresponsive airway (Brown Norway (BN) Rats): 58%; inhibition rate (%) mucus-secretion (Brown Norway (BN) Rats): 77%; inhibition rate (%) infiltration of inflammatory cells (Brown Norway (BN) Rats): 71%
29 | 8.89 | 8.89 | CC(C)Oc1ccc(S(=O)(=O)N2CCC(c3cn(CC(=O)O)c4ccc(Cl)cc34)CC2)cc1 [Compound I-3] | 
30 | 8.72 |  | CC(C)Oc1ccc(S(=O)(=O)N2CCC(c3cn(CC(=O)O)c4cc(-c5ccccn5)ccc34)CC2)cc1 [Compound I-99] | 
31 | 9.07 |  | COc1cccc(-c2ccc3c(C4CCN(S(=O)(=O)c5ccc(OC(C)C)cc5)C4)cn(CC(=O)O)c3c2)c1 (stereo not drawn) [Compound I-81] | 
32 | 9.21 | 9.43 | CC(C)Oc1ccc(S(=O)(=O)N2CCC(c3cn(CC(=O)O)c4cc(-c5ccco5)ccc34)C2)cc1 (stereo not drawn) [Compound I-77] | inhibition rate (%) increased hyperresponsive airway (Brown Norway (BN) Rats): 110%; inhibition rate (%) mucus-secretion (Brown Norway (BN) Rats): 72%; inhibition rate (%) infiltration of inflammatory cells (Brown Norway (BN) Rats): 28%
33 | 9.47 | 8.64 | CC(C)Oc1ccc(S(=O)(=O)N2CC[C@@H](c3cn(CC(=O)O)c4ccc(Cl)cc34)C2)cc1 [Compound I-65] | inhibition rate (%) increased hyperresponsive airway (Brown Norway (BN) Rats): 62%; inhibition rate (%) mucus-secretion (Brown Norway (BN) Rats): 40%; inhibition rate (%) infiltration of inflammatory cells (Brown Norway (BN) Rats): 61%
34 | 8.64 | 8.47 | CC(C)Oc1ccc(S(=O)(=O)N2CCC(c3cn(CC(=O)O)c4cc(F)ccc34)C2)cc1 (stereo not drawn) [Compound I-34] | 
35 | 9.30 | 9.62 | CC(C)Oc1ccc(S(=O)(=O)N2CCC(c3cn(CC(=O)O)c4cc(-c5nccs5)ccc34)C2)cc1 (stereo not drawn) [Compound I-93] | 
36 | 8.72 |  | COc1ccc(-c2ccc3c(C4CCN(S(=O)(=O)c5ccc(OC(C)C)cc5)C4)cn(CC(=O)O)c3c2)cc1 (stereo not drawn) [Compound I-74] | 
37 | 8.70 |  | CC(C)Oc1ccc(S(=O)(=O)N2CCC(c3cn(CC(=O)O)c4cc(-c5cccc(C#N)c5)ccc34)C2)cc1 (stereo not drawn) [Compound I-73] | 
38 | 9.72 | 9.04 | CC(C)Oc1ccc(S(=O)(=O)N2CC[C@@H](c3cn(CC(=O)O)c4cc(Cl)ccc34)C2)cc1 [Compound I-79] | 

Source: US7956082B2, “Indole derivative having PGD2 receptor antagonist activity” (Shionogi & Co., Ltd, priority 2005, dated 2011)
